Assay results reported in patent US4122199A, “Amides of pyrrolidinoethylamine which can be used in treatment of coughs” (Pierre Fabre S.A., priority 1976, dated 1978).
Structures can show the parent of a compound that is named as a salt. Where two headings read alike, the source gives them in different places.

Assays:
in vivo = conditions: mouse, in vivo, mice, isotonic aqueous solution
Protocol: It is determined on mice, the products being administered orally, intraperitoneally, and intraveneously in isotonic aqueous solution.

[1] = Solubility characteristics; assay type: physicochemical
guinea pigs = test: Citric acid aerosol method on guinea pigs (antitussive); assay type: in vivo; conditions: orally, citric acid aerosol
Protocol: The animals were subjected to a 20% citric acid aerosol for 15 minutes.
The coughs were recorded by a microphone.
The products were administered intraperitoneally 20 minutes before the exposure to the aerosol.
Some derivatives were also tested orally.

[2] = Hygroscopicity of crystals; assay type: physicochemical

CCC(C(=O)NCCN1CCCC1)c1ccccc1 (stereo not drawn) [F 1419, N(2'-pyrrolidino-ethyl)-α-phenyl-α-ethyl acetamide hydrochloride]
LD50 (in vivo; ip, intraperitoneal, read-out: DL 50 intraperitoneal): 200 mg/kg | LD50 (in vivo; iv, intravenous, read-out: DL 50 intravenous): 76 mg/kg | LD50 (in vivo; po, oral, read-out: DL 50 oral): 660 mg/kg | Solubility in N-methyl pyrrolidone ([1]; N-methyl pyrrolidone, % soluble): 7% | Solubility in ethanol ([1]; ethanol, % soluble): 15% | Solubility in ether ([1]; ether, in words): insoluble | Solubility in propylene glycol ([1]; propylene glycol, % soluble): 25% | Solubility in water ([1]; water, in words): very soluble | % decrease in no. coughs in 15 mins. (guinea pigs; 50 mg/kg): -22 | % decrease in no. coughs in 15 mins. (guinea pigs; 100 mg/kg): -40 | Hygroscopicity [2]: slightly hygroscopic
